Values joined by “and” are separate entries in the source; they are usually repeats but may differ in a detail not shown here. Identical values can stand only once. Records with an inconclusive call do not appear.
Tested on: BDF1 mice, s.c. Lewis lung carcinoma, T/C %
Assay: NCI In Vivo Anticancer Drug Screen. Data for tumor model Lewis Lung Carcinoma (subcutaneous) in B6D2F1 (BDF1) mice
Outline: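 Readout: survival or tumor size, expressed as treated (T) over vehicle control (C). Transplantable tumor implanted in mice; compound given to the treated group.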

[1] = endpoint: median survival time, dose: 6.25 mg/kg/injection, schedule: Q01DX009 (ip), vehicle: Klucel (hydroxypropylcellulose) (HPC), higher = longer survival
[2] = endpoint: median survival time, dose: 12.5 mg/kg/injection, schedule: Q01DX009 (ip), vehicle: Klucel (hydroxypropylcellulose) (HPC), higher = longer survival
[3] = endpoint: median survival time, dose: 25.0 mg/kg/injection, schedule: Q01DX009 (ip), vehicle: Klucel (hydroxypropylcellulose) (HPC), higher = longer survival
[4] = endpoint: mean tumor weight, dose: 133.0 mg/kg/injection, schedule: Q01DX011 (ip), vehicle: other, higher = larger tumour
[5] = endpoint: mean tumor weight, dose: 200.0 mg/kg/injection, schedule: Q01DX011 (ip), vehicle: other, higher = larger tumour

For `CC(=O)Oc1ccc(/C=N/NC(N)=S)nc1`, the T/C (endpoint: median survival time, dose: 9.4 mg/kg/injection, schedule: Q01DX009 (ip), vehicle: saline with Tween-80, higher = longer survival) was 97 % of control, the T/C (endpoint: median survival time, dose: 18.8 mg/kg/injection, schedule: Q01DX009 (ip), vehicle: saline with Tween-80, higher = longer survival) was 97 % of control and the T/C (endpoint: median survival time, dose: 25.0 mg/kg/injection, schedule: Q01DX009 (ip), vehicle: saline with Tween-80, higher = longer survival) was 100 % of control. For the same compound, the T/C (endpoint: median survival time, dose: 37.5 mg/kg/injection, schedule: Q01DX009 (ip), vehicle: saline with Tween-80, higher = longer survival) was 101 % of control, the T/C (endpoint: median survival time, dose: 50.0 mg/kg/injection, schedule: Q01DX009 (ip), vehicle: saline with Tween-80, higher = longer survival) was 107 % of control and the T/C (endpoint: median survival time, dose: 75.0 mg/kg/injection, schedule: Q01DX009 (ip), vehicle: saline with Tween-80, higher = longer survival) was 117 % of control. The T/C (endpoint: median survival time, dose: 100.0 mg/kg/injection, schedule: Q01DX009 (ip), vehicle: saline with Tween-80, higher = longer survival) was 117 % of control, the T/C (endpoint: median tumor weight (est.), dose: 24.0 mg/kg/injection, schedule: Q03HX024 (ip), vehicle: saline with Tween-80, higher = larger tumour) was 96 % of control and the T/C (endpoint: median tumor weight (est.), dose: 36.0 mg/kg/injection, schedule: Q03HX024 (ip), vehicle: saline with Tween-80, higher = larger tumour) was 41 % of control.

With `CCCCC(=O)OCC(=O)[C@]1(O)Cc2c(O)c3c(c(O)c2[C@@H](OC2CC(NC(=O)C(F)(F)F)C(O)C(C)O2)C1)C(=O)c1c(OC)cccc1C3=O` (stereo partly drawn) the T/C (endpoint: median survival time, dose: 14.0 mg/kg/injection, schedule: Q01DX009 (ip), vehicle: distilled water + Tween-80, higher = longer survival) was 114 % of control, the T/C (endpoint: median survival time, dose: 20.0 mg/kg/injection, schedule: Q01DX009 (ip), vehicle: distilled water + Tween-80, higher = longer survival) was 123 % of control and the T/C (endpoint: median survival time, dose: 54.0 mg/kg/injection, schedule: Q01DX001 (ip), vehicle: distilled water + Tween-80, higher = longer survival) was 113 % of control. For the same compound, the T/C (endpoint: median survival time, dose: 80.0 mg/kg/injection, schedule: Q01DX001 (ip), vehicle: distilled water + Tween-80, higher = longer survival) was 155 % of control and the T/C (endpoint: median survival time, dose: 120.0 mg/kg/injection, schedule: Q01DX001 (ip), vehicle: distilled water + Tween-80, higher = longer survival) was 158 % of control.

With `COC1=C(N2CC2)C(=O)C(OC)=C(N2CC2)C1=O` the T/C (endpoint: median survival time, dose: 0.25 mg/kg/injection, schedule: Q01DX009 (ip), vehicle: Klucel (hydroxypropylcellulose) (HPC), higher = longer survival) was 97 % of control, the T/C (endpoint: median survival time, dose: 0.5 mg/kg/injection, schedule: Q01DX009 (ip), vehicle: Klucel (hydroxypropylcellulose) (HPC), higher = longer survival) was 106 % of control and the T/C (endpoint: median survival time, dose: 1.0 mg/kg/injection, schedule: Q01DX009 (ip), vehicle: Klucel (hydroxypropylcellulose) (HPC), higher = longer survival) was 101 % of control. For the same compound, the T/C (endpoint: median survival time, dose: 2.0 mg/kg/injection, schedule: Q01DX009 (ip), vehicle: Klucel (hydroxypropylcellulose) (HPC), higher = longer survival) was 111 % of control and the T/C (endpoint: median survival time, dose: 4.0 mg/kg/injection, schedule: Q01DX009 (ip), vehicle: Klucel (hydroxypropylcellulose) (HPC), higher = longer survival) was 124 % of control.

For `CC1CN(C(=O)CCl)c2ccccc2N1C(=O)CCl` (stereo not drawn), the T/C (endpoint: mean tumor weight, dose: 1.0 mg/kg/injection, schedule: Q01DX011 (ip), vehicle: carboxymethylcellulose (CMC), higher = larger tumour) was 121 % of control, the T/C (endpoint: mean tumor weight, dose: 2.0 mg/kg/injection, schedule: Q01DX011 (ip), vehicle: carboxymethylcellulose (CMC), higher = larger tumour) was 94 % of control and the T/C (endpoint: mean tumor weight, dose: 4.0 mg/kg/injection, schedule: Q01DX011 (ip), vehicle: carboxymethylcellulose (CMC), higher = larger tumour) was 75 % of control. The T/C (endpoint: mean tumor weight, dose: 8.0 mg/kg/injection, schedule: Q01DX011 (ip), vehicle: carboxymethylcellulose (CMC), higher = larger tumour) was 124 % of control.

In the case of `C=C1C(=O)OC2C1CCC(C)C1CCC(=O)OC12C` (stereo not drawn), the T/C (endpoint: median survival time, dose: 1.6 mg/kg/injection, schedule: Q01DX009 (ip), vehicle: Klucel (hydroxypropylcellulose) (HPC), higher = longer survival) is reported as 95 % of control, the T/C (endpoint: median survival time, dose: 3.12 mg/kg/injection, schedule: Q01DX009 (ip), vehicle: Klucel (hydroxypropylcellulose) (HPC), higher = longer survival) is reported as 102 % of control and the T/C (endpoint: median survival time, dose: 3.13 mg/kg/injection, schedule: Q01DX009 (ip), vehicle: Klucel (hydroxypropylcellulose) (HPC), higher = longer survival) is reported as 104 % of control. For the same compound, the T/C [1] was 102 % of control, the T/C [2] was 106 % of control and the T/C [3] was 92 % of control.

With `CCN(C=O)CC` the T/C (endpoint: mean tumor weight, dose: 88.0 mg/kg/injection, schedule: Q01DX011 (ip), vehicle: other, higher = larger tumour) was 89 % of control, the T/C [4] was 102 % of control and the T/C [5] was 68 % of control. The T/C (endpoint: mean tumor weight, dose: 300.0 mg/kg/injection, schedule: Q01DX011 (ip), vehicle: other, higher = larger tumour) was 87 % of control, the T/C (endpoint: mean tumor weight, dose: 300.0 mg/kg/injection, schedule: Q01DX011 (ip), vehicle: saline, higher = larger tumour) was 65 % of control and the T/C (endpoint: mean tumor weight, dose: 600.0 mg/kg/injection, schedule: Q01DX011 (ip), vehicle: saline, higher = larger tumour) was 62 % of control. For the same compound, the T/C (endpoint: mean tumor weight, dose: 900.0 mg/kg/injection, schedule: Q01DX011 (ip), vehicle: saline, higher = larger tumour) was 90 % of control.

With `O=P(Oc1ccccc1)(Oc1ccccc1)c1ccccc1` the T/C [4] was 75 % of control and the T/C [5] was 91 % of control.

With `C1=CC2(OCCO2)C2CC=CC3(OCCO3)C2C1` (stereo not drawn) the T/C [1] was 88 % of control, the T/C [2] was 100 % of control and the T/C [3] was 95 % of control and 97 % of control. For the same compound, the T/C (endpoint: median survival time, dose: 50.0 mg/kg/injection, schedule: Q01DX009 (ip), vehicle: Klucel (hydroxypropylcellulose) (HPC), higher = longer survival) was 93 % of control and the T/C (endpoint: median survival time, dose: 100.0 mg/kg/injection, schedule: Q01DX009 (ip), vehicle: Klucel (hydroxypropylcellulose) (HPC), higher = longer survival) was 106 % of control.

Reference: PubChem BioAssay AID270 (DTP/NCI, 2004)
